# Source: US8822440B2, “Inhibiting cyclin D polypeptides” (Mayo Foundation for Medical Education and Research, priority 2006, dated 2014)
# Entries after “also recorded” stand apart in the source; their conditions may differ.
# How the values were obtained:
# CCND2 promoter = experiment: CCND2 promoter-luciferase transactivation assay in NIH3T3 cells with or without c-maf; format: cell-based, mouse; conditions: ~5 μM, 16 hours; hit = 50% or more reduction in luciferase relative to cell viability
# Experimental: Using this assay, Lopac (n=1280), Prestwick (n=1120), and Spectrum (n=2000) libraries of drugs and natural compounds were screened. In a parallel MTS assay, the effect of each compound on 3T3 viability was determined, allowing exclusion of compounds that caused secondary suppression of CCND2 due to non-specific cytotoxicity. […] These included monensin, patulin, β-lapachone, camptothecin, dihydrogambogic acid, gentian violet, thapsigargin, brefeldin A, pristimerin, and kinetin riboside.
# Full-length c-maf cDNA was subcloned into an IRES-GFP MIEV retroviral vector and introduced into NIH3T3 cells by infection. Stable clones expressing GFP and c-maf were selected by flow cytometry and immunoblotting, respectively. The promoter of human cyclin D2 (−894 to −4; Brooks et al., J. Biol. Chem., 271, 9090-9 (1996)), containing c-maf responsive element sequence (MARE), was cloned from DNA from HeLa cells and inserted into the pGLbasic firefly luciferase vector (Promega, Madison, Wis.) immediately upstream of the luciferase gene. This construct was co-transfected with pcDNA3 (containing a neomycin resistance gene) into both NIH3T3 wild type cells and NIH3T3 cells stably over-expressing c-maf-IRES-GFP. Cells stably expressing c-maf, GFP, and luciferase were selected.
# (§1) NIH3T3 cells stably expressing c-maf and the CCND2 promoter driving luciferase (13,000 cells per well) were plated in 96-well plates by a Biomek FX liquid handler (Beckman, Fullerton, Calif.). After the cells had adhered, they were treated with aliquots of molecules from LOPAC (Sigma, St. Louis, Mo.), Prestwick (Prestwick Chemical Inc, Illkirch, France) or Spectrum (Microsource Discovery Systems, Gaylordsville, Conn.) libraries of off-patent drugs and chemicals at a final concentration of ˜5 μM and <0.1% DMSO. Cells were incubated with compounds at 37° C. for 16 hours.
# Luciferase assay. Luciferase activity was assessed according to the manufacturer's instructions (Promega, Madison, Wis.). Briefly, the cell culture medium was removed using an EMBLA plate washer (Molecular Devices, X) and Glo Lysis buffer (Promega) was added by robot. After a 10-minute incubation, an equal volume of Bright-Glo Luciferase substrate (Promega) was added, and luminescence signal was detected with a 96-well Luminoskan luminescence plate reader (Thermo Labsystem, Waltham, Mass.) using a 5 second integration.
# Studies of kinetin riboside using 3T3-D2-luc cells. To examine CCND2 suppression induced by kinetin riboside, the reporter cells were exposed to kinetin riboside in combination with other drugs (all purchased from Sigma, St. Loius, Mo.) that influence CCND2 transcription or inhibit nucleoside transport or phosphorylation. NIH3T3 cells expressing the CCND2 promoter driving luciferase were incubated with kinetin riboside or vehicle control +/− forskolin, 4-(3-butoxy-4-methoxybenzyl)imidazolidin-2-one (BMBI), cantharadin, S-(4-Nitrobenzyl)-6-thioinosine (NBTI), or A-134974, as specified at 5 μM concentration for 16 hours at 37° C. […] Forskolin is a cell-permeable diterpenoid that activates adenylate cyclase resulting in increased cAMP concentration. BMBI (Sigma B8279) is an inhibitor of cAMP phosphodiesterase that also causes accumulation of cAMP. Cantharadin (C7632) is an inhibitor of protein phosphatase 2A and, from the library screen, mediates induction of CCND2. NBTI (Sigma N2255) is a potent adenosine uptake inhibitor, and A-134974 (Sigma A2846) is a selective inhibitor of adenosine kinase.
# (§2) In an optimized automated assay, NIH3T3 cells over-expressing c-maf and the human cyclin D2 promoter driving luc were plated in 96-well plates by robot and following adhesion were treated for 16 hours with compounds at a final concentration of ˜5 μM and <0.1% DMSO. As a control, cells were treated with buffer alone. […] Thus, each compound from the library was tested in at least two assays—luciferase for CCND2 activity and MTS for viability. The coefficient of variance (CV) of the assay was <10%.
# NIH3T3 cells = format: cell-based, mouse; conditions: MTS
# Experimental: as §1
# (§3) Viability assay. The effects of screened compounds on cell viability was assessed by 3-(4,5-dimethyl[…])-5-(3-carboxymethoxyphenyl)-2-(4-sulfophenyl)-2-H-tetrazolium (MTS) assay according to the manufacture's instructions (Progmega, Madison, Wis.). MTS reagent (20 μL/well in 96 well plates) was added to cells, and these were then incubated at 37° C. for 4 hours. Absorbance at 490 nm was determined using a 96-well plate reader.
# as §2
# RSV promoter = experiment: Luciferase driven by RSV promoter in NIH3T3 cells (specificity control); format: cell-based
# Source text: Exclusion of non-specific or toxic assay ‘hits.’ Drugs that decreased luciferase activity without affecting viability may cause reduced transactivation of the cyclin D2 promoter, or may act non-specifically on the activity of the luciferase enzyme. To distinguish between these two possibilities, hits were re-tested against NIH3T3 cells that over-expressed luciferase driven by an RSV promoter. […] Therefore, these drugs were excluded from further analysis.
# [1] = test system: human myeloma cell lines (HMCL); experiment: HMCL viability / cytotoxicity (MTT, MTS); format: cell-based
# Experimental: Subsequent validation studies using selected compounds in human myeloma cell lines (HMCL) confirmed successful suppression of both cyclin D2 and D1 polypeptides. Each of these compounds was then shown to be cytotoxic to a genetically diverse and standardized panel of 14 HMCL in MTT assays: monensin (10-760 nM), camptothecin (5-700 nM), dihydrogambogic acid (250-800 nM), pristimerin (150-500 nM), and kinetin riboside (2.5-20 μM). Cell cycle analysis confirmed induction of G0/G1 phase arrest for most compounds, consistent with cyclin D inhibition.
# as §3
# [2] = test system: CD138− hematopoietic cells; experiment: Unsorted myeloma patient bone marrow, flow cytometry: CD138- non-malignant cells; format: cell-based; conditions: patient bone marrow, 48 hours
# Experimental: Flow cytometry. HMCL were treated as indicated and then washed in cold phosphate-buffered saline (PBS) and resuspended in buffer containing AnnexinV-FITC and propidium iodide (BD Biosciences, San Jose, Calif.) for 15 minutes at room temperature. Cells (10^5) were subsequently diluted and analyzed immediately by flow cytometry (FACScan, BD Biosciences, San Jose, Calif.) using CellQuest software. Patient bone marrow specimens were prepared and analyzed in a similar fashion using AnnexinV-FITC and anti-CD138-PE (BD Biosciences, San Jose, Calif.).
# As mouse embryos that lack any D-cyclins eventually die from hematopoietic failure (Kozar et al., Cell, 118, 477-91 (2004)), the bone marrow might be predicted to be one of the most sensitive non-malignant tissue to be affected by drugs targeting cyclin D expression. Unsorted bone marrow samples from myeloma patients were treated with kinetin riboside to assess the relative cytotoxicity of this drug on malignant versus non-malignant marrow cells. Bone marrow samples were first processed to remove non-nucleated red cells and were then treated for 48 hours with kinetin riboside (5 μM).
# [3] = Pristimerin toxicity studies in mice; format: in vivo; conditions: i.p. daily
# Experimental: While pristimerin is cytotoxic to HMCL and patient myeloma cells at 0.1-0.15 mg/L, toxicity studies in vivo indicate that the drug is tolerated in mice at 2.5 mg/kg i.p. daily.
smiles,measurement,setting,value
O=C1C=C2C(=CCOC2O)O1 (centres unmarked) [patulin],identified as putative inhibitor of CCND2 transactivation (screen hit),CCND2 promoter,putative CCND2 inhibitors; also recorded: putative suppressors of CCND2
same,effect on NIH3T3 viability,NIH3T3 cells,excess NIH3T3 cytoxicity
same,effect on luciferase driven by RSV promoter,RSV promoter,non-specifically reduce luciferase activity
COC(=O)[C@]1(C)CC[C@]2(C)CC[C@]3(C)C4=CC=C5C(=CC(=O)C(O)=C5C)[C@]4(C)CC[C@@]3(C)[C@@H]2C1 [pristimerin],effect on NIH3T3 viability,NIH3T3 cells,relatively minor effects
same,cytotoxic concentration,[1]; HMCL and patient myeloma cells,0.1 to 0.15 mg/L
same,cytotoxic concentration across panel of 14 HMCL,"[1]; MTT assays, 14 HMCL",150 to 500 nM
same,toxicity in CD138− bone marrow progenitor compartment,[2],only modest toxicity
same,dose tolerated in mice,[3],2.5 mg/kg
